Like-named read-outs stand apart in the source and are kept apart here.
Columns and labels:
[1] = Liver microsome stability, monkey; type: in vitro ADME; conditions: Monkey liver microsomes; with the addition of NADPH
Description: (§1) 1) Two individual experiments were performed.
(§2) All experiments were performed in duplicate.

[2] = system: HuPrime model LI6664 human liver cancer; test: In vivo pharmacodynamics, liver cancer LI6664 PDX model; parameters: species or system BALB/c nude mice; conditions: for Relative tumor volume (x ± S) / Tumor volume (x ± S): mean ± standard error; for Tumor volume (x ± S): in mm³ (unit assumed)
Description: Experiment Instruction: BALB/c nude mice were subcutaneously inoculated with HuPrime® model LI6664 tumor blocks to establish a subcutaneous transplantation tumor model of human liver cancer. […] Among them, 7.5% anhydrous ethanol+7.5% polyoxyethylene (35) castor oil+85% glucose injection D5W (pH 7.4) vehicle control group was administered by tail vein once a week for 3 consecutive weeks; test drug AST-3424 0.3 mg/kg and 1 mg/kg groups were administered by tail vein injection once a day for 5 consecutive days, followed by 2 days off, followed by 2 weeks off, and then continuously administered for 5 consecutive days; the test drug AST-3424 1.25 mg/kg group was administered by tail vein injection once a week for 2 consecutive weeks, followed by one week off, and then continuously administered for 2 consecutive weeks, Compound A 0.5 mg/kg, 1.5 mg/kg, and 4.5 mg/kg groups were administered by tail vein injection once a week for three consecutive weeks, followed by 1 week off, and then administered for three consecutive weeks. […] The efficacy was evaluated according to the relative tumor inhibition rate TGI (%), and the safety was evaluated according to the change in body weight and the death of the animals.

[3] = Liver microsome stability, mouse; type: in vitro ADME; conditions: Mouse liver microsomes; with the addition of NADPH
Description: as §1, §2

[4] = system: NCI-H1792; test: AKR1C3-dependent cytotoxicity, NSCLC cell line NCI-H1792; type: cell-based; conditions: Homo sapiens
Description: (§3) The tested compound was then added. The compound was dissolved in 100% DMSO at 200 times of the desired final test concentration. When the medicament was added, the compound was further diluted to 4 times of the desired final test concentration by using the complete medium. 50 μL of aliquots of the compound with specific concentration were added to the microwells containing 150 μL of medium, and then the final medicament concentration was obtained. […] The medicament was then washed. […] After the incubation was finished, the Alamar Blue was used to analyze and quantify the living cells.

[5] = system: H460 cancer cells; test: H460 proliferation in the presence or absence of AKR1C3 inhibitor AST-3021 (Alamar Blue); type: cell-based, human; conditions: for IC50: Homo sapiens, NCI-H460, H460, 2 hours exposure
Description: as §3

[6] = system: NCIH2106; test: AKR1C3-dependent cytotoxicity, NSCLC cell line NCIH2106; type: cell-based
Description: as §3

[7] = system: NCI-H2110; test: AKR1C3-dependent cytotoxicity, NSCLC cell line NCI-H2110; type: cell-based
Description: as §3

[8] = system: H460 cells; test: Inhibition of H460 cancer cell proliferation (CTG, 72 h); type: cell-based; conditions: Homo sapiens, NCI-H460
Description: If not otherwise specified, IC50 values were measured by the following experimental methods:
c) The cell suspension was added to 96-well plate with 100 μL per well and 2000 cells/well of cell density.
a) Cells were plated for 24 hours, and then the compounds acted singly. 99 μL of growth medium was supplemented per well, and then 1 μL of 200× compound was added, gently shaken to ensure uniform mixing, and then placed in a 37° C., 5% CO2 incubator.
b) The cell plate was placed in the incubator for 72 hours.
b) 100 μL of CTG reagent (CelltiterGlo kit) was added to each well, the plate was placed in a rapid oscillator and shaken for 2 minutes, and then placed at room temperature for 30 minutes away from light.
c) The chemiluminescence signal value was read with Envision instrument.
The IC50 was calculated using GraphPad Prism 8 software and the IC50 (half inhibitory concentration) of the compounds was obtained using the following non-linear fitting formula: […]

For C[C@@H](OP(=O)(N1CC1)N1CC1)c1ccc([N+](=O)[O-])c(Oc2cccc(C(=O)N(C)C)c2)c1 [AST-3424], the “Percentage remaining after 30 minutes” value [1] was 0.03%, the “relative tumor inhibition rate TGI (%)” value ([2]; 0.3 mg/kg i.v. QDx5, 2 days off, 2 weeks off, QDx5, Day 28) was 45.85% and the “relative tumor inhibition rate TGI (%)” value ([2]; 1 mg/kg i.v. QDx5, 2 days off, 2 weeks off, QDx5, Day 28) was 65.05%. For the same molecule, the “relative tumor inhibition rate TGI (%)” value ([2]; 1.25 mg/kg i.v. QWx2, 1 week off, QWx2, Day 28) was 52.42%, the “T/C (%)” value ([2]; AST-3424 0.3 mg/kg, Day 28) was 54.15% and the “Relative tumor volume (x ± S)” value ([2]; AST-3424 0.3 mg/kg, Day 28) was 6.99 ± 1.31. The “Tumor volume (x ± S)” value ([2]; AST-3424 0.3 mg/kg, Day 28) was 746.71 ± 130.55, the “T/C (%)” value ([2]; AST-3424 1 mg/kg, Day 28) was 34.95% and the “Relative tumor volume (x ± S)” value ([2]; AST-3424 1 mg/kg, Day 28) was 4.51 ± 1.21. For the same molecule, the “Tumor volume (x ± S)” value ([2]; AST-3424 1 mg/kg, Day 28) was 463.09 ± 99.32, the “T/C (%)” value ([2]; AST-3424 1.25 mg/kg, Day 28) was 47.58% and the “Relative tumor volume (x ± S)” value ([2]; AST-3424 1.25 mg/kg, Day 28) was 6.14 ± 0.94. For the same molecule, the “Tumor volume (x ± S)” value ([2]; AST-3424 1.25 mg/kg, Day 28) was 687.95 ± 147.16, the “Size of tumor volume” value ([2]; Group3, AST-3424 0.3 mg/kg, Day 0) was 108.20 mm^3 and the “Size of tumor volume” value ([2]; Group3, AST-3424 0.3 mg/kg, Day 4) was 162.32 mm^3. For the same molecule, the “Size of tumor volume” value ([2]; Group3, AST-3424 0.3 mg/kg, Day 7) was 177.51 mm^3, the “Size of tumor volume” value ([2]; Group3, AST-3424 0.3 mg/kg, Day 11) was 208.59 mm^3 and the “Size of tumor volume” value ([2]; Group3, AST-3424 0.3 mg/kg, Day 14) was 306.95 mm^3. The “Size of tumor volume” value ([2]; Group3, AST-3424 0.3 mg/kg, Day 18) was 391.40 mm^3, the “Size of tumor volume” value ([2]; Group3, AST-3424 0.3 mg/kg, Day 21) was 499.34 mm^3 and the “Size of tumor volume” value ([2]; Group3, AST-3424 0.3 mg/kg, Day 25) was 631.08 mm^3. For the same molecule, the “Size of tumor volume” value ([2]; Group3, AST-3424 0.3 mg/kg, Day 28) was 746.71 mm^3, the “Size of tumor volume” value ([2]; Group3, AST-3424 0.3 mg/kg, Day 32) was 958.09 mm^3 and the “Size of tumor volume” value ([2]; Group3, AST-3424 0.3 mg/kg, Day 35) was 1059.71 mm^3. For the same molecule, the “Size of tumor volume” value ([2]; Group3, AST-3424 0.3 mg/kg, Day 39) was 1226.51 mm^3, the “Size of tumor volume” value ([2]; Group3, AST-3424 0.3 mg/kg, Day 42) was 1094.69 mm^3 and the “Size of tumor volume” value ([2]; Group3, AST-3424 0.3 mg/kg, Day 46) was 1268.82 mm^3. The “Size of tumor volume” value ([2]; Group3, AST-3424 0.3 mg/kg, Day 49) was 1486.77 mm^3, the “Size of tumor volume” value ([2]; Group4, AST-3424 1 mg/kg, Day 0) was 107.53 mm^3 and the “Size of tumor volume” value ([2]; Group4, AST-3424 1 mg/kg, Day 4) was 131.59 mm^3. The “Size of tumor volume” value ([2]; Group4, AST-3424 1 mg/kg, Day 7) was 145.23 mm^3, the “Size of tumor volume” value ([2]; Group4, AST-3424 1 mg/kg, Day 11) was 158.03 mm^3 and the “Size of tumor volume” value ([2]; Group4, AST-3424 1 mg/kg, Day 14) was 233.54 mm^3. For the same molecule, the “Size of tumor volume” value ([2]; Group4, AST-3424 1 mg/kg, Day 18) was 291.97 mm^3, the “Size of tumor volume” value ([2]; Group4, AST-3424 1 mg/kg, Day 21) was 371.35 mm^3 and the “Size of tumor volume” value ([2]; Group4, AST-3424 1 mg/kg, Day 25) was 438.00 mm^3. The “Size of tumor volume” value ([2]; Group4, AST-3424 1 mg/kg, Day 28) was 463.09 mm^3, the “Size of tumor volume” value ([2]; Group4, AST-3424 1 mg/kg, Day 32) was 622.48 mm^3 and the “Size of tumor volume” value ([2]; Group4, AST-3424 1 mg/kg, Day 35) was 748.13 mm^3. For the same molecule, the “Size of tumor volume” value ([2]; Group4, AST-3424 1 mg/kg, Day 39) was 929.60 mm^3, the “Size of tumor volume” value ([2]; Group4, AST-3424 1 mg/kg, Day 42) was 1226.79 mm^3 and the “Size of tumor volume” value ([2]; Group4, AST-3424 1 mg/kg, Day 46) was 1496.83 mm^3. For the same molecule, the “Size of tumor volume” value ([2]; Group4, AST-3424 1 mg/kg, Day 49) was 1717.60 mm^3, the “Size of tumor volume” value ([2]; Group5, AST-3424 1.25 mg/kg, Day 0) was 108.46 mm^3 and the “Size of tumor volume” value ([2]; Group5, AST-3424 1.25 mg/kg, Day 4) was 174.65 mm^3. The “Size of tumor volume” value ([2]; Group5, AST-3424 1.25 mg/kg, Day 7) was 210.25 mm^3, the “Size of tumor volume” value ([2]; Group5, AST-3424 1.25 mg/kg, Day 11) was 222.97 mm^3 and the “Size of tumor volume” value ([2]; Group5, AST-3424 1.25 mg/kg, Day 14) was 291.02 mm^3. The “Size of tumor volume” value ([2]; Group5, AST-3424 1.25 mg/kg, Day 18) was 361.03 mm^3, the “Size of tumor volume” value ([2]; Group5, AST-3424 1.25 mg/kg, Day 21) was 467.94 mm^3 and the “Size of tumor volume” value ([2]; Group5, AST-3424 1.25 mg/kg, Day 25) was 581.63 mm^3. For the same molecule, the “Size of tumor volume” value ([2]; Group5, AST-3424 1.25 mg/kg, Day 28) was 687.95 mm^3, the “Size of tumor volume” value ([2]; Group5, AST-3424 1.25 mg/kg, Day 32) was 746.71 mm^3 and the “Size of tumor volume” value ([2]; Group5, AST-3424 1.25 mg/kg, Day 35) was 871.84 mm^3. The “Size of tumor volume” value ([2]; Group5, AST-3424 1.25 mg/kg, Day 39) was 1081.64 mm^3, the “Size of tumor volume” value ([2]; Group5, AST-3424 1.25 mg/kg, Day 42) was 1307.36 mm^3 and the “Size of tumor volume” value ([2]; Group5, AST-3424 1.25 mg/kg, Day 46) was 1675.14 mm^3. The “Size of tumor volume” value ([2]; Group5, AST-3424 1.25 mg/kg, Day 49) was 1923.31 mm^3, the weight loss ([2]; mouse, in vivo) was “no weight loss” and the “Percentage remaining after 30 minutes” value [3] was 3.1%. The IC50 [4] was 4.5 nM, the IC50 ([5]; AST-3021 3 micromolar, read-out: IC50 With the addition of AST-3021) was 44.9 nM and the IC50 ([5]; no AKR1C3 inhibitor, read-out: IC50 Without the addition of AST-3021) was 0.349 nM. For the same molecule, the Fold ([5]; IC50 with AST-3021 over IC50 without) was 128.71, the IC50 [6] was > 1000 nM and the IC50 [7] was 1.1 nM. For the same molecule, the IC50 [8] was 0.11 nM.

— patent publication US20260159536A1, “AKR1C3-ACTIVATED DNA ALKYLATING AGENT, AND MEDICAL APPLICATION THEREOF” (ASCENTAWITS PHARMACEUTICALS, LTD., priority 2021, published 2026)
